Test results reported in patent US8048898B2, “Inhibitor of binding of S1P1” (Taisho Pharmaceutical Co., Ltd, priority 2007, dated 2011).

Molecular target: T1, human Edg-1(S1P1) (Homo sapiens, UniProt P21453)
T1 construct: expressed in transfected cells; host or cells: HEK-293
Assay: S1P1 Binding Test ([33P]-S1P, membrane fraction of HEK-293 cell line carrying the human Edg-1(S1P1) gene)
Details: [33P]-S1P 0.1 nM; for inhibition at 10 µM: compound at 10 μM, 30° C., 1 hour, read-out: inhibition rate of Edg-1(S1P1) binding; for IC50: membrane binding test at various concentrations, read-out: IC50 value, Edg-1(S1P1) binding inhibition
Experimental: The membrane fraction of a HEK-293 cell line carrying the human Edg-1(S1P1) gene was used to study the compounds of the present invention for their inhibitory effect on Edg-1(S1P1) binding, as described in Science. […] To obtain the membrane fraction, treatment with solubilizing buffer (1 mM Tris/HCl, pH 7.2) for 10 minutes on ice was performed, followed by centrifugation at 1000×g for 5 minutes to remove an insoluble fraction and then at 40000×g for 30 minutes at 4° C. The resulting membrane fraction was dissolved in binding buffer (20 mM Tris-HCl, pH 7.4, 100 mM NaCl, 15 mM NaF, 2 mM deoxypyridoxine, 4 mg/mL fatty acid-free BSA), followed by addition of binding buffer containing [^33P]-S1P (ARC, final concentration: 0.1 nM) and DMSO solution of a test compound (final concentration of the compound: 10^−5 M, final concentration of DMSO: 0.1%). After stirring, the reaction solution was incubated at 30° C. for 1 hour. The membrane fraction was collected onto a unifilter-96 GF/C filter (Perkin Elmer) using a harvester and washed four times with binding buffer, followed by drying the filter. After addition of 25 μL Microscint 0 (Perkin Elmer), radioactivity was measured with a Top Count NXT (Packard) to calculate amount (A), i.e., the amount of [^33P]-S1P binding to the membrane fraction in the presence of the compound.
The same procedure was performed in the absence of any test compound to calculate amount (B), i.e., the amount of [^33P]-S1P binding. Moreover, the same procedure was also performed with HEK-293 cells carrying no Edg-1(S1P1) gene in the absence of any test compound to calculate amount (C), i.e., the amount of background [^33P]-S1P binding.
The inhibition rate of Edg-1(S1P1) binding was calculated for each compound by the following equation. Inhibition rate (%)=[1−(A−C)/(B−C)]×100
Moreover, the activity of each test compound was calculated as a value (IC50 value) showing 50% of the radioactivity obtained in the absence of any test compound. Namely, the above membrane system binding test was performed in the presence of a test compound at various concentrations to calculate an IC50 value according to the dose-dependent inhibition curve analyzed with data analysis software, Origin (Lightstone Corp., Japan).

T1 sequence (P21453 whole entry): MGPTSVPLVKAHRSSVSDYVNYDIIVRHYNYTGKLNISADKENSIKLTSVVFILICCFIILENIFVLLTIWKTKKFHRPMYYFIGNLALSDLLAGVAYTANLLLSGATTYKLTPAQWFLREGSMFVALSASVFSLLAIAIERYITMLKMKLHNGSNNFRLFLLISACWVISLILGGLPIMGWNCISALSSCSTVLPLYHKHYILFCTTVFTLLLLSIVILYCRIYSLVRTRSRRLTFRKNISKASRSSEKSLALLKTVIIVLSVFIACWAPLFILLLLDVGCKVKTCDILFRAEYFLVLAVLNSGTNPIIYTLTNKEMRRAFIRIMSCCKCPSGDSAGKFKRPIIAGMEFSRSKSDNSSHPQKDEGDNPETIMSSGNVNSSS

| SMILES | inhibition at 10 µM | IC50 |
| --- | --- | --- |
| CCc1c(C(C)NS(=O)(=O)c2ccc3c(c2)N=S=N3)ccnc1Oc1cccc(N2CCOCC2)c1 (stereo not drawn) [Compound 55] | ≥ 3% | 126 nM |
| CCc1c(C(C)NS(=O)(=O)c2ccc(Cl)cc2Cl)ccnc1Oc1cccc(N2CCOCC2)c1 (stereo not drawn) [Compound 56] | ≥ 3% |  |
| CCc1c(C(C)NS(=O)(=O)c2ccc3c(Cl)cccc3c2)ccnc1S(=O)(=O)c1ccc(C)cc1 (stereo not drawn) [Compound 59, 5-Chloronaphthalene-2-sulfonic acid {1-[3-ethyl-2-(toluene-4-sulfonyl)-pyridin-4-yl]-ethyl}-amide] | ≥ 3% |  |
| CCc1c(C(C)NS(=O)(=O)c2ccc3c(Cl)cccc3c2)ccnc1Sc1cccc(N2CCN(C)CC2)c1 (stereo not drawn) [Compound 62] | ≥ 3% |  |

More lines, now with the values ahead:

| inhibition at 10 µM | IC50 | SMILES |
| --- | --- | --- |
| ≥ 3% |  | CCc1c(C(C)NS(=O)(=O)c2ccc3c(c2)OCO3)ccnc1Oc1cccc(N2CCOCC2)c1 (stereo not drawn) [Compound 52] |
| ≥ 3% |  | CCc1c(C(C)NS(=O)(=O)/C=C/c2ccccc2)ccnc1Oc1cccc(N2CCOCC2)c1 (stereo not drawn) [Compound 53] |
| ≥ 3% |  | CCc1c(C(C)NS(=O)(=O)c2ccc3c(c2)CCO3)ccnc1Oc1cccc(N2CCOCC2)c1 (stereo not drawn) [Compound 54] |
| ≥ 3% | ≤ 200 nM | CCc1c(C(C)NS(=O)(=O)c2ccc3c(Cl)ccc(Cl)c3c2)ccnc1Oc1cccc(N2CCOCC2)c1 (stereo not drawn) [Compound 57] |
| ≥ 3% |  | CCc1c(C(C)NS(=O)(=O)c2ccc3c(Cl)cccc3c2)ccnc1Sc1ccc(C)cc1 (stereo not drawn) [Compound 58, 5-Chloronaphthalene-2-sulfonic acid [1-(3-ethyl-2-p-toluylsulfanyl-pyridin-4-yl)-ethyl]-amide] |
| ≥ 3% |  | CCc1c(C(C)N(C)S(=O)(=O)c2ccc3c(Cl)cccc3c2)ccnc1Oc1cccc(N2CCOCC2)c1 (stereo not drawn) [Compound 60, 5-Chloronaphthalene-2-sulfonic acid {1-[3-ethyl-2-(3-morpholin-4-yl-phenoxy)-pyridin-4-yl]-ethyl}-methyl-amide] |
